Like-named read-outs stand apart in the source and are kept apart here.
Key:
NOX3 = target: T1, NOX3 (Homo sapiens, UniProt Q9HBY0); assay: Expi293 whole cell assay, NOX3 overexpression; assay type: cell-based; conditions: doses 100x higher than GSK2795039
T1 construct: expressed in transfected cells; host or cells: Expi293 (human embryonic kidney) cells, transient transfection
T1 sequence (Q9HBY0 1-568): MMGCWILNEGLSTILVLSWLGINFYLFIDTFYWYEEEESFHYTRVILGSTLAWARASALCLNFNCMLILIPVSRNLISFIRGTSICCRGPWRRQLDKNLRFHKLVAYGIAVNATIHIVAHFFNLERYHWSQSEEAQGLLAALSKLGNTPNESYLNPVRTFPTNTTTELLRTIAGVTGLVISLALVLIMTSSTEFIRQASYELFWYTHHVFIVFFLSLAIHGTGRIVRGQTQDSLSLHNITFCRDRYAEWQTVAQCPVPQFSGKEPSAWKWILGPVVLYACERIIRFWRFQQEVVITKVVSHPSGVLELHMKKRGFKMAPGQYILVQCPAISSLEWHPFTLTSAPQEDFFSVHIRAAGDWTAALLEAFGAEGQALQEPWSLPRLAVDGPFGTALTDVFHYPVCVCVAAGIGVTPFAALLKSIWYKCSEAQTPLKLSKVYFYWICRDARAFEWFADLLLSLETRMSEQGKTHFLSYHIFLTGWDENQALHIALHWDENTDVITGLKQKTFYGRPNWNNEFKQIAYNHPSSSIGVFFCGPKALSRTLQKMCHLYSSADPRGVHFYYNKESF
T1 sequence (P13498 2-195 partner limits assumed): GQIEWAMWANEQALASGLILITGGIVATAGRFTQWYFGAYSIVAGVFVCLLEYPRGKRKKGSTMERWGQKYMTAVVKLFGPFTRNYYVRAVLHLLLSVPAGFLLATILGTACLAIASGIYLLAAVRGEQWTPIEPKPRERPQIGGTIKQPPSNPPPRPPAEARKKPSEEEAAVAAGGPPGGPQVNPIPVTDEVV
Method: Given concerns about previous assays for specific NOX family members we here report the first use of the Expi293 Expression System (Thermo Scientific) to overexpress NOX1, 2, 3, 4, and 5 in excess of any endogenous NOX proteins present in these cells. Transfections were performed following the manufacturer's instructions using the plasmids for each NOX as described in Supplemental Table 2 except that the enhancer solution provided with the Expi293 system was not used because it promoted enzyme activation.
After the times indicated in Supplemental Table 2, cells were washed and 50,000 added per well of a white 96-well plate (Greiner) along with 50 μM Luminol and 2.5 U horseradish peroxidase/mL in a volume of 90 μl for NOX1, NOX2, and NOX5. Inhibitors or vehicle controls were added and cells were incubated for 20 min at 37 °C prior to activation with the indicated stimuli. For NOX3 and NOX4 (constitutively active), cells were incubated with inhibitor or vehicle control prior to the addition of luminol and HRP. Chemiluminescence was measured every 2 min for 1 s per well at 37 °C in a Varioscan Multimode reader. AUC data were analyzed using GraphPad Prism using non-linear regression analysis after expressing relative to control alone (maximum ROS production).

Bovine Xanthine Oxidase = target: T2, Bovine Xanthine Oxidase (Bos taurus, UniProt P80457); assay: Xanthine oxidase / hypoxanthine luminol chemiluminescence assay; assay type: biochemical; conditions: xanthine oxidase with hypoxanthine; mean ± SD, n in cell; read-out: X/XO IC50
T2 construct: purchased Sigma
T2 sequence (P80457 whole entry): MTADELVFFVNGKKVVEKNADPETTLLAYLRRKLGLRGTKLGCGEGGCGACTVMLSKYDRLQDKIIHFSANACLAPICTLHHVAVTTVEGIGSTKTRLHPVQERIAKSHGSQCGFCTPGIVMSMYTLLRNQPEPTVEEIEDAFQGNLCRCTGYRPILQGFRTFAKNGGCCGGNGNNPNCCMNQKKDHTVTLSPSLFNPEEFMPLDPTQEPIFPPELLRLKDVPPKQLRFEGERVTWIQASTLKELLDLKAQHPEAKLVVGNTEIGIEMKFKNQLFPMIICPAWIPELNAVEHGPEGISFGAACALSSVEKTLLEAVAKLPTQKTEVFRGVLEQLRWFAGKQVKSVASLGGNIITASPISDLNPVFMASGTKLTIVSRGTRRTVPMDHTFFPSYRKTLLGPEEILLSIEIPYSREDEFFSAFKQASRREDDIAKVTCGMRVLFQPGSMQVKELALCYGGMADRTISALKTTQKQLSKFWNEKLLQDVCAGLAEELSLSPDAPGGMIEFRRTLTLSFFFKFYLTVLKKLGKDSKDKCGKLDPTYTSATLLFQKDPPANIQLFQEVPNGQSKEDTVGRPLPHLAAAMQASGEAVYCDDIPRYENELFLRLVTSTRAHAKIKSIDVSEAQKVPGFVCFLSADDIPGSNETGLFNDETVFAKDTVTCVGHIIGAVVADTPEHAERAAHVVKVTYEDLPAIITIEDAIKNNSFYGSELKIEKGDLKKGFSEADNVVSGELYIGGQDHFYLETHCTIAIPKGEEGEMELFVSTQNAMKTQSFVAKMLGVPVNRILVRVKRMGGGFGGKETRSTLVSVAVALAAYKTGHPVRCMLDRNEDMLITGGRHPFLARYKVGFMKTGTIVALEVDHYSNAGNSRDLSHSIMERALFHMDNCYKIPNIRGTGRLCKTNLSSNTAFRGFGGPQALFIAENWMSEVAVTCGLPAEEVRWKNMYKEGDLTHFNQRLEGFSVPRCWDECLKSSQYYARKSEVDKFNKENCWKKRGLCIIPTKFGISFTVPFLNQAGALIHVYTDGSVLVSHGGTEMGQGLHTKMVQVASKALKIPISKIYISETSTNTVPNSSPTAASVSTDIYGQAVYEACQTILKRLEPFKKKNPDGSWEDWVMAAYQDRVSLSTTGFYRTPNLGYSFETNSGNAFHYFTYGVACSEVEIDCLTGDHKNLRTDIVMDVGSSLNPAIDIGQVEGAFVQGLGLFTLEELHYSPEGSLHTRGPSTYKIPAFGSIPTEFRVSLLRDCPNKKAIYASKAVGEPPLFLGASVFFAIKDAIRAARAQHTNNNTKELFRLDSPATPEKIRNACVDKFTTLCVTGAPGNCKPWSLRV
Method: Bovine Xanthine Oxidase (Sigma) was dialyzed in PBS to remove ammonium sulfate and stored at 4 °C. Hypoxanthine was prepared by heating in DMSO. Reactions were prepared by diluting xanthine oxidase in HBSS (final concentration 1.25 mU/mL) that contained 50 μM luminol and were preincubated 5 min with control or inhibitor before the addition of hypoxanthine at a final concentration of 0.5 mM. Luminescence was measured at 24 °C as described above.

NOX2 = target: T3, NOX2 (Homo sapiens, UniProt P04839); assay: NOX2 activity in primary human granulocytes (PMN), luminol chemiluminescence; assay type: cell-based; design: When tested against NOX2 in primary human neutrophils; endogenous in cells; host or cells: primary human granulocytes (PMN) from donor blood
T3 sequence (P04839 2-570 limits assumed): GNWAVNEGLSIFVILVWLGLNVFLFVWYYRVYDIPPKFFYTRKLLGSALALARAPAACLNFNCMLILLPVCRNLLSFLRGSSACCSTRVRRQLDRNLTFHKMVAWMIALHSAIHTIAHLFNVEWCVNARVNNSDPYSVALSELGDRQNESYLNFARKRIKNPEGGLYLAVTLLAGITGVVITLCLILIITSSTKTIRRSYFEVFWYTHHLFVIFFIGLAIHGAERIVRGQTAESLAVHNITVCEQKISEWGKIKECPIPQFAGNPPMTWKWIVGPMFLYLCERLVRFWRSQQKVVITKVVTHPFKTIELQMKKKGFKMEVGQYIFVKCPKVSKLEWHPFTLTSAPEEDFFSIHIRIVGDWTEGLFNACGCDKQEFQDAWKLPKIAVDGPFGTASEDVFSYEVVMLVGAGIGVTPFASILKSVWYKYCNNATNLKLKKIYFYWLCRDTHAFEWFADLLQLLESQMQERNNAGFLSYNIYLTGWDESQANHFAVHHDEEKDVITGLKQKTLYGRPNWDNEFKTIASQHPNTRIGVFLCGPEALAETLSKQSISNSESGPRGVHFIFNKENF
T3 sequence (P13498 2-195 partner limits assumed): T1 sequence (P13498 2-195 partner limits assumed)
Method: Human blood was obtained after informed consent by the Department of Transfusion Medicine (NIH Clinical Center) and provided as de-identified specimens. Human granulocytes were isolated using Percoll density fractionation as described and NOX2 activity was assessed in white polypropylene flat bottom 96 well plates following 15 min of preincubation at 37 °C with compounds or vehicle controls using 50 μM luminol as a chemiluminescence enhancer in an assay volume of 100 μl RPMI1640 with 1.1 × 10^5 cells/well in Varioskan Lux luminometer for 30 cycles of 1 s per well (approximately 1 h).

## Cn1ccc(S(=O)(=O)Nc2ccnc3c2c(-c2ccc4ccn(C)c4c2)cn3C2CC2)n1 [NCATS-SM7270, N-(1-cyclopropyl-3-(1-methyl-1H-indol-6-yl)-1H-pyrrolo [2,3-b]pyridin-4-yl)-1-methyl-1H-pyrazole-3-sulfonamide]
NOX3
  activity against NOX3: no detectable activity
Bovine Xanthine Oxidase
  IC50: 4.1 ± 5.66 µM
NOX2; mean of 6 donors ± S.D., read-out: IC50 against NOX2 in primary human neutrophils
  IC50: 4.09 ± 1 µM
NOX2; mean ± SD, n in cell, read-out: NOX-2 IC50 from PMN
  IC50: 2.15 µM
